Assay results taken from patent US7709259B2, “Enhancement of mammalian embryo development” (Board of Regents of the University of Texas System, priority 2003, dated 2010).
pEC50: −log10 of the molar value. Entries after “also recorded” stand apart in the source; their conditions may differ. Blank lines part the entries; values can stand above or below the molecule they belong to.

How the values were obtained:
[1] = tested on: mouse embryos; assay: Complete hatching of cultured two-cell mouse embryos; format: cell-based; details: for effect on complete hatching: 0.1 μM
Experimental: Mice were kept under controlled temperature, humidity, and light cycle (12 hour light/dark cycle) conditions with free access to water and food. Three-week old C57B1/6 female mice were purchased from Harlan (Indianapolis, Ind., USA). Eight-week old C3H male mice were purchased initially from Harlan and later from The Jackson Laboratory (Bar Harbor, Me., USA). Superovulation in the female mice was achieved by intraperitoneal injection of pregnant mare serum gonadotropin (5 IU), followed by human chorionic gonadotropin (hCG, 5 IU) 46 hours later. After receiving hCG, each female mouse was paired with one fertile male mouse. Forty-eight hours later, two-cell embryos were harvested from the oviduct into α-MEM media supplemented with 25 mM HEPES and 1% BSA (Irvine Scientific).
Embryos (17-20 per group) were cultured at 37° C. under 5% CO2 in a four-well dish (Nalge Nunc International, Naperville, Ill., USA) containing 600 μl of medium in each well. The HTF and the α-MEM media were used sequentially during the 96-hour period to meet the changing nutritional requirements of the cleaving embryos [Gardner, 1998]. The HTF medium (SAGE Biopharma) was used during the first 48 hours, and the α-MEM medium (Irvine Scientific), with Earle's Salts and 2 mM glutamine, was used during the second 48 hours. The experimental embryos received Iloprost in water and the control embryos received an equal amount of water. […] After 96-hour culture, each embryo was examined for the presence of the zona pellucida. Embryos completely free of the zona pellucida were counted as having completely hatched. The rate of complete hatching was determined by dividing the number of completely hatched embryos by the total number of embryos. Complete hatching of embryos was chosen as an endpoint instead of blastocyst formation or embryo hatching because the latter two markers are not correlated with establishment of a viable pregnancy [Lane, 1997].
Student's t-test or one-way analysis of variance followed by Dunnett test were used where appropriate. A p<0.05 was considered statistically significant. Construction of dose response curves and calculation of ED50 values (with the Hill slope set at 1.0) were completed with the GraphPad Prism® software (GraphPad Prism Software Inc., San Diego, Calif., USA).

[2] = tested on: intact mouse embryos (blastocysts); assay: Whole embryo radioligand binding assay (3H-Iloprost); details: 0.1 μM 3H-Iloprost, with or without 5 μM unlabeled Iloprost, 116 blastocysts
Experimental: Analysis of the binding of ^3H-Iloprost to blastocysts was performed as previously described [Arbab, 2002] with slight modification. Two hundred thirty-two hatched and hatching blastocysts were washed three times in binding buffer (10 mM MnCl2 in 10 mM HEPES, pH 7.4) and then transferred to 100 μl of binding buffer with or without unlabeled Iloprost (5 μM). The reaction was started by adding an equal amount of binding buffer containing ^3H-Iloprost (200 nM, specific activity 11.0 Ci/mmol, Amersham Biosciences) and incubating for 60 min at room temperature. The reaction was terminated by transferring the blastocysts to 2 ml of ice-cold wash buffer (0.01% BSA in 10 mM HEPES, pH 7.4). The buffer and the blastocysts were filtered through glass fiber filters (Whatman GF/C 2.4 cm) and the filters were washed three times with 2 ml of wash buffer. The filters were dried in an oven before the radioactivity was determined by scintillation counting with 5 ml of scintillation fluid.

[3] = tested on: mouse embryos; assay: Developmental stage of cultured embryos at the time of transfer; format: cell-based
Experimental: (§1) Mouse embryos were harvested and cultured as described above, and subsequently published by the present inventor (Huang et al., 2003). Briefly, two-cell embryos ([…]) were harvested from super-ovulated, three-week old C57B1/6 female mice 42 hours after hCG injection. The embryos (14 per group) were cultured at 37° C. under 5% CO2 in four-well dish (Nalge Nunc International, Naperville, Ill., USA) each containing 600 μl HTF media (SAGE Biopharma, Bedminster, N.J., USA). The experimental embryos received Iloprost (1 μM, Caymen Chemical, Ann Arbor, Mich., USA) in water and the control embryos, an equal amount of water. In either case, the volume of water was less than 0.1% of the culture media.
(§2) Embryo transfer was performed on 2.5 day of pseudopregnancy under a dissecting microscope (Olympus SZ-PT). Surgical anesthesia was obtained through intraperitoneal injection of ketamine (200 mg/Kg) and xylazine (10 mg/Kg) (both from Burns Vet Supply Inc. TX, USA). Each uterine horn was accessed via a 2-cm flank incision. With the proximal oviduct held by a pair of forceps, an opening was created at the distal end of the uterine horn on the anti-mesenteric side with a 30 gauge needle. The opening permits the entry of transfer pipette which has an inner diameter of 135 μm (MidAtlantic Diagnostics, Inc. NJ, USA). Up to seven embryos in 0.8 μl of transfer media (α MEM with 25 mM HEPES and 1% BSA) were transferred to each horn. After each transfer, contents of the pipette were examined under a stereo microscope to identify retained embryos. The flank incision was closed with 9 mm metallic clips (Clay Adams, Parsippany, N.J., USA). To avoid mixing of control and experimental embryos due to embryo migration from one horn to the other (personal communication with Dr. Andreas Zimmer, University of Bonn, Germany), each gestational carrier received either control or experimental embryos. To maintain consistent transfer techniques, the embryo transfer was performed according to the same protocol and by one individual, who was blinded to the treatment the embryos being placed received. To ensure that both groups benefited equally from the experience gained over the course of the study (˜6 months), the embryos were assigned treatments (control or Iloprost) in blocks of four.

[4] = tested on: mouse embryos; assay: Implantation rate 72 hours after transfer of cultured embryos to gestational carriers; format: in vivo
Experimental: as §1
The day after the embryo donors received hCG, vaginal smears were obtained from potential gestational carriers (eight week old C3B6F1 female mice) to determine the stage of estrus cycle. […]
Seventy-two hours after embryo transfer, implantation was determined based on a previously described method with some modifications (Paria et al., 1993). […] Discrete blue bands (indicated by *) encircling the uterine horns were counted (FIG. 6A). […] The uterine horns were then opened and the gestation sacs counted (FIG. 6B). The implantation rate was expressed as the number of gestation sacs per embryo transferred. […]

[5] = tested on: mouse embryos; assay: Live birth rate, implantation rate and weights of pups and placentae 14 days after embryo transfer; format: in vivo
Experimental: as §1
The day after the embryo donors received hCG, vaginal smears were obtained from potential gestational carriers (eight week old C3B6F1 female mice) to determine the stage of estrus cycle. Those in estrus were paired with vasectomized ICR males (Harlan) and checked for vaginal plugs on the following morning. Those with plugs were designated to be 0.5 day pseudopregnant.
as §2
In order to count and weigh the pups accurately, we sacrificed gestational carriers 14 days after embryo transfer (16.5 days of pregnancy or two days before natural birth). After euthanasia, the number of live pups was counted and the weight of individual pup and placenta was determined. All pups were examined for gross anomalies. The number of empty gestation sacs was also counted in order to determine the implantation rate. The live birth rate was expressed as the number of live pups per embryo transferred; the implantation rate was expressed as the number of sacs, with or without live pups, per embryo transferred.
The Fisher's exact test was used to compare the rates; the Student's t-test was used to compare the weights. A p<0.05 was considered as statistically significant. The GraphPad Instat® software (GraphPad Software Inc., San Diego, Calif., USA) was used for statistical analysis.

[6] = tested on: human embryos (frozen zygotes); assay: Blastocyst formation study with frozen human zygotes; format: cell-based; details: Frozen Zygote, 0.1 μM
Experimental: (§3) With the patients' written instructions, 101 frozen zygotes from 14 couples were used for the blastocyst formation study. The zygotes had been frozen during the period of January, 1993 to November, 2003. After overnight culture, only those embryos that had developed to 2-cell stage were used for further study. For each patient, those 2-cell stage embryos were split into a control pool or an experimental pool. All embryos were cultured in Gobal medium (a modified KSOM medium from IVF online) for 5 days with change medium at 2.5 day. The experimental group was supplemented with 0.1 μM of Iloprost (Cayman Chemical, Ann Arbor, Mich.). The control group was supplemented with vehicle (0.000001% DMSO). Chi-Square test were used to compare the number of blastocyst formed. The quality (size, inner cell mass, trophectoderm) of blastocysts was analyzed by non-parametric Wilcoxon Rank Sum Test. The statistical significance was defined at P<0.05. Another 52 donated frozen blastocysts, from 9 couples, were used for short term study. Forty-five thawed blastocysts were recovered. Those blastocysts were immediately cultured with or without Iloprost. The re-expansion of blastocoel was checked 18 hours later. The analysis of outcome was the same as the analysis for the frozen zygotes study.

[7] = tested on: human frozen blastocysts; assay: Short term study with thawed frozen human blastocysts; format: cell-based
Experimental: as §3

[8] = tested on: rabbits; details: Iloprost given throughout the gestation period; cited from earlier work
[9] = tested on: monkeys; details: Iloprost given throughout the gestation period; cited from earlier work
[10] = tested on: rats; details: Iloprost given throughout the gestation period; cited from earlier work
[11] = 1 μM in HTF media, 81 embryos transferred

3H-Iloprost specifically bound [2]: approximately 3.04 fmol | Pup weight (mean ± S.D.) ([5]; 14 days after transfer (16.5 days of pregnancy), control 0.788 ± 0.151): 0.772 ± 0.124 gm | Placental weight (mean ± S.D.) ([5]; 14 days after transfer, control 0.166 ± 0.037): 0.166 ± 0.003 gm
Compound: CC#CCC(C)[C@H](O)/C=C/[C@@H]1[C@H]2C/C(=C/CCCC(=O)O)C[C@H]2C[C@H]1O (stereo partly shown) [Iloprost]
effect on complete hatching ([1]; exposure 0-72 hours after harvest): same rates of complete hatching as did 0-96 hours exposure | effect on complete hatching ([1]; exposure 24-42 hours (eight-cell embryos to morulae)): ensured enhanced hatching | effect on complete hatching ([1]; exposure 24-72 hours after harvest): same rates of complete hatching as did 0-96 hours exposure | effect on complete hatching ([1]; exposure 42-72 hours (morulae to early blastocysts)): ensured enhanced hatching | effect on complete hatching ([1]; exposure during the first 24 hours of culture (two-cell to eight-cell)): did not enhance hatching | rate of complete hatching (mean±S.D.) ([1]; 1 μM, maximum augmentation, 96 hours, n=3, control 49±14%): 81±7% | concentration at which effects on complete hatching were statistically significant ([1]; 96 hour culture): ≥ 0.1 µM | pEC50 ([1]; Mus musculus, 96 h, two-cell mouse embryos cultured 96 hours with 1 nM to 10 μM, Hill slope set at 1.0, read-out: ED50 for enhancement of complete hatching): 8.17 | Degenerated (number of embryos at transfer) [3, 11]: 0 | Hatching Blastocyst (number of embryos at transfer) [3, 11]: 2 | Morula (number of embryos at transfer) [3, 11]: 49 | Early Blastocyst (number of embryos at transfer) ([3]; 1 μM, 81 embryos transferred, blastocoele cavity <49% of the embryo): 8 | Late Blastocyst (number of embryos at transfer) ([3]; 1 μM, 81 embryos transferred, blastocoele cavity ≧50% of the embryo): 22 | embryos at the morula stage at the time of transfer ([3]; experimental and control embryos): approximately 70% | Number of gestation sacs ([4]; 72 hours after transfer of 81 embryos cultured with 1 μM, control 35): 62 | implantation rate (gestation sacs per embryo transferred) ([4]; 72 hours after transfer, control 42%): 76% | Total number of live pups ([5]; 14 days after transfer of 415 embryos to 31 carriers, control 115): 149 | live birth rate (live pups per embryo transferred) ([5]; 14 days after transfer, control 28%): 36% | implantation rate (sacs with or without live pups per embryo transferred) ([5]; 14 days after transfer, control 46%): 59% | gross anomalies of pups ([5]; embryos exposed during the pre-implantation period, live pups examined): no gross anomalies; also recorded: no digit reduction or other anomalies | blastocysts formed / embryos ([6]; 5 days culture, control 11/26): (18/26) | Blastocyst formation rate ([6]; 5 days culture, control 42%): 69% | ICM (coding A = 3, B = 2, C = 1) ([6]; inner cell mass, control 0.50): 1.42 | Size (score 1-6) ([6]; morula or degenerated = 0, control 1.42): 3.04 | TRO (coding A = 3, B = 2, C = 1) ([6]; trophectoderm, control 0.46): 1.31 | TRO (coding A = 3, B = 2, C = 1) ([7]; Frozen blastocyst, 18 hours, control 0.68): 0.78 | ICM (coding A = 3, B = 2, C = 1) ([7]; Frozen blastocyst, 18 hours, control 0.72): 0.86 | Size (score 1-6) ([7]; Frozen blastocyst, 18 hours, control 1.45): 1.47 | blastocysts / thawed blastocysts ([7]; Frozen blastocyst, 18 hours, control 11/22): (11/23) | Blastocyst formate rate ([7]; re-expansion of blastocoel checked 18 hours after thaw, control 50%): 48% | embryonic and fetal development [8]: not affected | embryonic and fetal development [9]: not affected | embryonic and fetal development [10]: digit reduction

Compound: CCCCC[C@H](O)/C=C/[C@H]1[C@H](O)CC(=O)[C@@H]1C/C=C\CCCC(=O)O [PGE2, prostaglandin E2]
effect on complete hatching of cultured mouse embryos ([1]; preliminary data): enhanced the complete hatching
